Legend:
[1] = The drug is tested on Bifidobacterium breve strain: DSM20213 for biotransformation. The drug concentrations were measured before and after a 12-h incubation by liquid-chromatography-coupled mass spectrometry (LC–MS); conditions: 2 µM
[2] = The drug is tested on Anaerotruncus colihominis strain: DSM17241 for biotransformation. The drug concentrations were measured before and after a 12-h incubation by liquid-chromatography-coupled mass spectrometry (LC–MS); conditions: 2 µM
[3] = The drug is tested on Clostridium sporogenes strain: ATCC15579 for biotransformation. The drug concentrations were measured before and after a 12-h incubation by liquid-chromatography-coupled mass spectrometry (LC–MS); conditions: 2 µM
[4] = The drug is tested on Providencia rettgeri strain: DSM1131 for biotransformation. The drug concentrations were measured before and after a 12-h incubation by liquid-chromatography-coupled mass spectrometry (LC–MS); type: ADME; parameters: dose 2 uM, timepoint 0 vs 12 hours; conditions: 2 µM
[5] = The drug is tested on Parabacteroides merdae strain: ATCC43184 for biotransformation. The drug concentrations were measured before and after a 12-h incubation by liquid-chromatography-coupled mass spectrometry (LC–MS); conditions: 2 µM
[6] = limosilactobacillus reuteri cf48-3a, 12 h, 2 µM
Description: The drug is tested on Lactobacillus reuteri CF48-3A strain: BEI HM-102 for biotransformation. The drug concentrations were measured before and after a 12-h incubation by liquid-chromatography-coupled mass spectrometry (LC–MS)

[7] = The drug is tested on Bacteroides xylanisolvens strain: DSM18836 for biotransformation. The drug concentrations were measured before and after a 12-h incubation by liquid-chromatography-coupled mass spectrometry (LC–MS); conditions: 2 µM
[8] = The drug is tested on Bacteroides uniformis strain: ATCC8492 for biotransformation. The drug concentrations were measured before and after a 12-h incubation by liquid-chromatography-coupled mass spectrometry (LC–MS); conditions: 2 µM
[9] = The drug is tested on Blautia hansenii strain: DSM20583 for biotransformation. The drug concentrations were measured before and after a 12-h incubation by liquid-chromatography-coupled mass spectrometry (LC–MS); conditions: 2 µM
[10] = roseburia intestinalis, 12 h, 2 µM
Description: The drug is tested on Roseburia intestinalis strain: L1-82 for biotransformation. The drug concentrations were measured before and after a 12-h incubation by liquid-chromatography-coupled mass spectrometry (LC–MS)

[11] = The drug is tested on Coprococcus comes strain: ATCC27758 for biotransformation. The drug concentrations were measured before and after a 12-h incubation by liquid-chromatography-coupled mass spectrometry (LC–MS); type: ADME; parameters: dose 2 uM, timepoint 0 vs 12 hours; conditions: 2 µM
[12] = The drug is tested on Enterococcus faecalis strain: V583 for biotransformation. The drug concentrations were measured before and after a 12-h incubation by liquid-chromatography-coupled mass spectrometry (LC–MS); conditions: 2 µM
[13] = The drug is tested on Clostridium scindens strain: ATCC35704 for biotransformation. The drug concentrations were measured before and after a 12-h incubation by liquid-chromatography-coupled mass spectrometry (LC–MS); conditions: 2 µM
[14] = The drug is tested on Clostridium ramosum strain: DSM1402 for biotransformation. The drug concentrations were measured before and after a 12-h incubation by liquid-chromatography-coupled mass spectrometry (LC–MS); conditions: thomasclavelia ramosa, 2 µM
[15] = The drug is tested on Bacteroides fragilis strain: HMW615 for biotransformation. The drug concentrations were measured before and after a 12-h incubation by liquid-chromatography-coupled mass spectrometry (LC–MS); conditions: 2 µM
[16] = The drug is tested on Bacteroides coprophilus strain: DSM18228 for biotransformation. The drug concentrations were measured before and after a 12-h incubation by liquid-chromatography-coupled mass spectrometry (LC–MS); conditions: 2 µM
[17] = bacteroides thetaiotaomicron, 12 h, 2 µM
Description: The drug is tested on Bacteroides thetaiotaomicron strain: 7330 for biotransformation. The drug concentrations were measured before and after a 12-h incubation by liquid-chromatography-coupled mass spectrometry (LC–MS)

[18] = bacteroides thetaiotaomicron, 12 h, 2 µM; remark: listed apart in the source
Description: The drug is tested on Bacteroides thetaiotaomicron strain: 3731 for biotransformation. The drug concentrations were measured before and after a 12-h incubation by liquid-chromatography-coupled mass spectrometry (LC–MS)

[19] = The drug is tested on Bacteroides fragilis strain: HMW610 for biotransformation. The drug concentrations were measured before and after a 12-h incubation by liquid-chromatography-coupled mass spectrometry (LC–MS); conditions: 2 µM
[20] = bacteroides intestinalis, 12 h, 2 µM
Description: The drug is tested on Bacteroides intestinalis strain: DSM17393 for biotransformation. The drug concentrations were measured before and after a 12-h incubation by liquid-chromatography-coupled mass spectrometry (LC–MS)

Measured: Bacterial Biotransformation

CN(C/C=C/C#CC(C)(C)C)Cc1cccc2ccccc12 [TERBINAFINE]
Compound NOT metabolized: all assays above

From ChEMBL document CHEMBL5303573, “Mapping human microbiome drug metabolism by gut bacteria and their genes” (Nature, 2019)
